Data on 14 compounds can be found in PubChem BioAssay (NCI).

Values joined by “and” are separate entries in the source; they are usually repeats but may differ in a detail not shown here. Equal values may be shown once.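 Interpolation was linear, between the two tested concentrations surrounding the appropriate level; five concentrations were tested over 48 hours in 96-well plates. Here, GI50 denotes the concentration required for 50% inhibition of growth. At the TGI there is no net growth.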

Some test systems named below: HOP-18 NSCLC; RXF-631 renal; XF 498 CNS; P388 leukemia; P388/ADR leukemia; SN12K1 renal.
Holding throughout (test): NCI tumour cell line growth inhibition, 48 h

As for `COc1cc2c(c(OC)c1)C(=O)C(=O)C(CC1(C)OCCCO1)=C2`, the TGI came out at 24.5 µM with HOP-18 NSCLC, 36.6 µM in the experiment on RXF-631 renal and 25.6 µM in the experiment with XF 498 CNS.
With `CCOC(=O)C1=C(C)C2C3C(=O)OC(=O)C3C1(C)C1C(=O)OC(=O)C21` (configuration not stated), the TGI in the experiment with RXF-631 renal was above 100 µM.
Turning to `NCCNc1ccc(NCCN)c2c1C(=O)c1c(O)ccc(O)c1C2=O`, the GI50 in the experiment with HOP-18 NSCLC was 0.0263 µM. The TGI in the experiment on HOP-18 NSCLC was 3.82 µM and 0.77 µM; with RXF-631 renal, 1.13 µM; in the experiment on XF 498 CNS it was 0.298 µM.
In the case of `COc1ccccc1NC(=O)C(=O)C(c1cnc2ccc([N+](=O)[O-])cc2n1)[N+](=O)[O-]` (configuration not stated), the TGI in the experiment on HOP-18 NSCLC, with RXF-631 renal and in the experiment with XF 498 CNS was above 100 µM in each case.
`CC1=C(N2CC2)C(=O)C(C)=C(N2CC2)C1=O`: the TGI was found to be 11.4 µM in the experiment on HOP-18 NSCLC and 0.3 µM with XF 498 CNS.
The compound `O=C(O)C1Cc2[nH]c3ccccc3c2C2CCCC12` (configuration not stated) had a TGI in the experiment on XF 498 CNS above 100 µM.
`Nc1n[nH]c(N)n1`: the TGI in the experiment with HOP-18 NSCLC was above 10000 µM; in the experiment on P388 leukemia, 4240 µM; with P388/ADR leukemia it was 8070 µM; in the experiment on SN12K1 renal, above 10000 µM; with XF 498 CNS it was 2750 µM.
In the case of `N#CCCN(c1ccc(C=Nc2ccc(C(=O)O)cc2)cc1)S(=O)(=O)c1ccccc1`, the TGI with HOP-18 NSCLC and in the experiment on XF 498 CNS was above 100 µM in each case.
`Cc1cc(N(CCC#N)CCC#N)ccc1/C=C(\N=[N+]=[N-])C(=O)NC(=O)COc1ccccc1`: the TGI in the experiment with HOP-18 NSCLC, in the experiment with RXF-631 renal and with XF 498 CNS was above 100 µM in each case.
Take `CCOC(=O)C(C(=O)OCC)S(C)(=O)=O`: the TGI in the experiment on HOP-18 NSCLC, in the experiment on RXF-631 renal and in the experiment with XF 498 CNS was above 100 µM each time.
`COc1cc2cnc3c4cc(O)ccc4ccc3c2cc1OC`: in the experiment with HOP-18 NSCLC, the TGI is above 100 µM.
With `C[N+]1(C)C/C(=C\C=C\c2ccccc2)C(=O)/C(=C/C=C/c2ccccc2)C1`, the TGI in the experiment on HOP-18 NSCLC was above 61.1 µM; in the experiment on XF 498 CNS it was 57.4 µM.
`N#C/C(=C\c1ccccc1F)C(=O)c1ccccc1`: in the experiment with XF 498 CNS, the TGI is above 100 µM.
For `Cc1nc2c(n1Cc1ccc(F)cc1)C(=O)c1ccccc1C2=O`, in the experiment with XF 498 CNS, the TGI is above 100 µM.
